Patent US20220267271A1, “WNT ACTIVATORS AND METHODS OF USE” (MAYO FOUNDATION FOR MEDICAL EDUCATION AND RESEARCH, priority 2019, published 2022)

System: LRP6
Experiment: HA-LRP6 expression in HT1080 cells stably transduced with HA-LRP6, Western blot
Type: cell-based, human
Conditions: HT1080 cells stably transduced with HA-LRP6, 24 h
Protocol: (A) structures of niciosamide and CI-994; (B) HEK293 cells were transfected with Super8XTOPFlash and β galactosidase vectors along with Wnt3A or control vector. After 24 hours incubation, cells were treated with CI-994 at the indicated concentration for 24 hr. The luciferase activity was then measured and normalized to the activity of the β-galactosidase. (C) HT1080 cells stably transduced LRP6 with HA tag were treated with niciosamide and CI-994 at the indicated concentrations for 24 h. The levels of HA-LRP6 were examined by Western blot with anti-HA antibody. (D) Western blots showing the depletion of LRP6 after 2 days of transiently transfection of 50 nM LRP6 siRNA in HEK293 cells. […] The luciferase activity was then measured and normalized to β-galactosidase activity. […]
(A) HT1080 cells stably transduced with human LRP6 with HA tag were treated with niciosamide (1 μM) and other compounds as noted (1 μM) for 24 hr. […] The luciferase activity was then measured and normalized to β-galactosidase activity. […]
Western blotting: Cells in 6-well plates were lysed in 0.5 ml of lysis buffer (phosphate-buffered saline containing 1% Triton X-100, 1× Proteinase inhibitor cocktail Complete, and 1 mM PMSF) at 4° C. for 15 min. Equal quantities of protein were subjected to SDS-PAGE under reducing conditions. […]

**Q.** With `CC(=O)Nc1ccc(C(=O)Nc2ccccc2N)cc1` [CI-994, 4-(acetylamino)-N-(2-aminophenyl)benzamide, reference compound] as the molecule, how does the HA-LRP6 expression read?
**A.** Its HA-LRP6 expression is “significantly enhanced”.
